Experimental data published in patent US20170360991A1, “DRUG COMPOSITION AND COATING” (W. L. GORE & ASSOCIATES, INC., priority 2015, published 2017).
Counter-ions that a name gives are not always drawn.

How the values were obtained:
[1] = Ethylene oxide stability of cast paclitaxel-excipient films; type: physicochemical; details: mean of N = 3
Description: Approximately 30 mg of excipient was weighed into a 7 mL glass vial and 6 mL of 75/25 v/v acetone/water was added. A small stirrer bar was added to each vial and all samples were stirred overnight at room temperature to ensure full dissolution. Next, a stock solution of paclitaxel in the casting solvent was made at 5 mg/mL. A specific volume of paclitaxel stock and excipient stock was added to a new vial to achieve the target paclitaxel/excipient weight fraction listed in Table 6. The vials were then mixed and aliquoted to N=6 of the 20 mL vials (0.5 mL each). A paclitaxel-only control was also added to N=6 vials (0.25 mL each). All vials were left in a fume hood overnight to evaporate the solvents. After drying, the samples were capped with cellulose membranes cut to septa size to allow ethylene oxide and moisture permeability. All samples were packaged in breathable polyethylene pouches. N=3 of each paclitaxel/excipient mixture were kept as non-sterilized controls, and the remainder (N=3) were sent for ethylene oxide sterilization (see Test Method D). Non-sterilized controls were stored at room temperature prior to analysis. Paclitaxel content analysis was performed as described in the Evaluation Methods section. Percent paclitaxel recovery was calculated by normalizing to either theoretical initial loading or pre-sterilized samples.

[2] = Ethylene oxide sterilization instability of paclitaxel-niacinamide formulations; details: additive formulated with paclitaxel as solid coating
[3] = acetone, ethanol and aqueous mixtures thereof
Description: As discussed in further detail below, coatings of the invention can be prepared by pipetting a solution containing therapeutic agent and excipient onto the device to be coated. […] Thus, in one embodiment the organic additive is not thiamine-HCl.

[4] = Early experiments on stability of organic additive in solution; type: physicochemical
Description: Thus, vanillin is not suitable as an organic additive for the present invention.

**Q.** For `CC(=O)O[C@H]1C(=O)[C@@]2(C)[C@H]([C@H](OC(=O)c3ccccc3)[C@]3(O)C[C@H](OC(=O)[C@H](O)[C@@H](NC(=O)c4ccccc4)c4ccccc4)C(C)=C1C3(C)C)[C@]1(OC(C)=O)CO[C@@H]1C[C@@H]2O` [PTX only, paclitaxel], which “% PTX recovery, pre vs. post” value ([1]; cast formulations post ethylene oxide sterilization, normalized to pre-sterilized samples) is on record?
**A.** 101.7%

**Q.** What about the “% PTX recovery, theoretical vs. pre” value ([1]; cast formulations pre-sterilization, normalized to theoretical loading) of the same compound?
**A.** 98.2%

**Q.** With `O=C([O-])c1ccccc1O.[Na+]` [sodium salicylate] as the compound, how does the “paclitaxel degradation on ethylene oxide sterilization” value [2] read?
**A.** cause degradation of the paclitaxel

**Q.** Which “solubility” value [3] does the source give for `Cc1ncc(C[n+]2csc(CCO)c2C)c(N)n1` [thiamine-HCl] here?
**A.** poor solubility

**Q.** Which “stability in solution” value [4] does the source give for `COc1cc(C=O)ccc1O` [vanillin] here?
**A.** easily degraded in solution
